Data reported in ChEMBL document CHEMBL4145624, “MDN-0185, an Antiplasmodial Polycyclic Xanthone Isolated from Micromonospora sp. CA-256353” (J Nat Prod, 2018).

System: Plasmodium falciparum
Experiment: Antiplasmodial activity against late-ring/early trophozoite intraerythrocytic stage of synchronized Plasmodium falciparum 3D7 after 72 hrs by LDH assay
Type: functional, organism-based
Details: 3D7, 72 h

Work on Cc1cc2c(c(=O)[nH]1)C(=O)[C@]1(O)c3c(O)c4c(c5c3[C@@H](C[C@@H]1C2=O)OCO5)O[C@@H]1[C@H](O)C=CC[C@H]1C4=O yielded an IC50 of 9 nM.
